According to patent US10982109B2, “Two-component printable conductive composition” (PRINTCB LTD., priority 2018, dated 2021):

Columns and labels:
[1] = Viscosity of the mixed composition (Brookfield digital viscometer); assay type: physicochemical; conditions: for Viscosity of the mixed composition: acid replacing citric acid in activated flux of Example 1, relative scale; for Viscosity trend versus composition without stabilizing agent: time following mixing
[2] = Stability / pot life of the mixed composition held at room temperature; conditions: in fluxing component of the two-component composition
Description: The two components were mixed at a proportion of 3.6:1 (by weight). The mixed composition was held at room temperature and its viscosity was measured hourly by Brookfield digital viscometer. Following each viscosity measurement, a line was printed on a glass substrate, the line being 50 mm long, 2 mm wide, and 40 μm thick. The printed ink was then sintered in a forced-air oven at 150° C. and the resistance of the obtained printed line was measured.

Row | SMILES | Viscosity of the mixed composition [1] | further results
1 | CC(=O)O [Acetic, acetic acid] | 5 | 
2 | O=C(O)/C=C/C(=O)O [Fumaric, fumaric acid] | 1 | 
3 | O=C(O)/C=C\C(=O)O [Maleic, maleic acid] | 5 | 
4 | O=C(O)C(=O)O [Oxalic, Oxalic acid] | 1 | Viscosity behaviour at room temperature following mixing [1]: increased within a few minutes such that it was not suitable for printing
5 | O=C(O)C(O)C(O)C(=O)O (stereo not shown) [Tartaric, tartaric acid] | 5 | 
6 | CCCCCCCCCCCCS [dodecanethiol] |  | Viscosity trend versus composition without stabilizing agent [1]: smaller viscosity increase
7 | CCCCCCCCS [octanethiol] |  | Effect of the stabilizing agent on pot life [2]: extend the pot life; Viscosity trend versus composition without stabilizing agent [1]: smaller viscosity increase
8 | NC(N)=S [thiourea] |  | Effect of the stabilizing agent on pot life [2]: extending the pot life
